# Test results: ChEMBL document CHEMBL1201862, “PubChem BioAssay data set” (2004)
# The source made the active and inactive calls.
# What was measured:
# [1] = target: Beta-2 adrenergic receptor (Homo sapiens, UniProt P07550); experiment: beta2AR agonists driving receptor internalization, dose response, cell-based, FAP fluorogen, flow cytometry, cherry pick 1 (AID 588763); format: functional
# [2] = target: DNA dC->dU-editing enzyme APOBEC-3G (Homo sapiens, UniProt Q9HC16); experiment: Dose Response confirmation of small molecule APOBEC3G DNA Deaminase Inhibitors via a fluorescence-based single-stranded DNA deaminase assay. [Related pubchem assays (depositor defined):AID493012, AID493028]; format: functional
# [3] = target: Glucose-6-phosphate 1-dehydrogenase (Homo sapiens, UniProt P11413); experiment: human G6PD enzyme inhibitors, dose response, selectivity assay for P. falciparum G6PD inhibitor project, biochemical, fluorescence (AID 504792); format: functional
# Sequence of Glucose-6-phosphate 1-dehydrogenase (P11413 whole entry): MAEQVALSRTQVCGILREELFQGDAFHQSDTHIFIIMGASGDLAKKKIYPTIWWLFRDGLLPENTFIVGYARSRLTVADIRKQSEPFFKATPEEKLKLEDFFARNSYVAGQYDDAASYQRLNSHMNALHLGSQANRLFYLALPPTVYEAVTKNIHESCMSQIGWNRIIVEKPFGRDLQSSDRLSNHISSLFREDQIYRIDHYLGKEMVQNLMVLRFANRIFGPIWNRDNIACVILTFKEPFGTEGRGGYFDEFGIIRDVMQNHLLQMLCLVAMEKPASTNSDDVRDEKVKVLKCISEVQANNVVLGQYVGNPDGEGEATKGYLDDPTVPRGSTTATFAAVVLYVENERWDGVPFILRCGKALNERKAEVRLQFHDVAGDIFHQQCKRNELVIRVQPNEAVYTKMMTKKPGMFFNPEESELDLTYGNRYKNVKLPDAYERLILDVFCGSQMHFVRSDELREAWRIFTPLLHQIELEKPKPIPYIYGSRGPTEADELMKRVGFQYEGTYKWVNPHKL
# [4] = A cytotoxicity screen of small molecule inhibitors of the PhoP region in Salmonella typhi identified in the primary screen. [Related pubchem assays: 1850, 1864, 1985 ]; format: functional
# [5] = target: Dual specificity protein kinase CLK1 (Homo sapiens, UniProt P49759); experiment: CLK1 kinase inhibitors, off-target check, dose response, selectivity assay for Dyrk1A inhibitor project, biochemical, cherry-picked samples (AID 588811)
# Sequence of Dual specificity protein kinase CLK1 (P49759 whole entry): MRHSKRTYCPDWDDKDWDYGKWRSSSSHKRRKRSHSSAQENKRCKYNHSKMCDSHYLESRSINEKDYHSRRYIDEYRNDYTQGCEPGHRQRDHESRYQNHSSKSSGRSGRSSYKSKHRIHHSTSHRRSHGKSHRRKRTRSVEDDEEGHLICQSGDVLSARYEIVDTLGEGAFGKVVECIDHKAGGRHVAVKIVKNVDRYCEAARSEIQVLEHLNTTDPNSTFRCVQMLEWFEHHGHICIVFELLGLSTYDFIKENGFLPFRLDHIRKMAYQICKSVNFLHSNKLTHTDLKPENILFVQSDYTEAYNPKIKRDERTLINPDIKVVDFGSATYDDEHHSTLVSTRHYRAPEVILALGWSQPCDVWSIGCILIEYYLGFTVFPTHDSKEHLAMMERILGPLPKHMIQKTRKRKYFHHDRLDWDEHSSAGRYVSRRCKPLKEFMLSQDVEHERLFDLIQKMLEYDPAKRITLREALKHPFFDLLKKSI
# [6] = target: Dual specificity tyrosine-phosphorylation-regulated kinase 1A (Rattus norvegicus, UniProt Q63470); format: biochemical, Homo sapiens
# [7] = target: Photoreceptor-specific nuclear receptor (Homo sapiens, UniProt Q9Y5X4); format: functional, cell-based;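 further: CHO-S cells with Gal4-NCOR and VP16-NR2E3 two-hybrid luciferase reporter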
# Sequence of Photoreceptor-specific nuclear receptor (Q9Y5X4 whole entry, the tested form may be a part): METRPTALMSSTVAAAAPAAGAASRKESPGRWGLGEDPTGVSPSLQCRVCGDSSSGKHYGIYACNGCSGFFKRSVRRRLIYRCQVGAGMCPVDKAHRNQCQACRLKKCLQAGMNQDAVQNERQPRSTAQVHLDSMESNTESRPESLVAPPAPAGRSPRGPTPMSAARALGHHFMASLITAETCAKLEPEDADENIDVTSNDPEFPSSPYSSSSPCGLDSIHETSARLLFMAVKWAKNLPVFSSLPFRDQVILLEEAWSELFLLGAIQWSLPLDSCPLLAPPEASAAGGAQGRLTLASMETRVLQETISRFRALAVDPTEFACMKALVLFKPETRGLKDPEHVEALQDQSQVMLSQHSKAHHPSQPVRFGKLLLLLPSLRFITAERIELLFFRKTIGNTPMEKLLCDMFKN
# Cytochrome P450 2D6 = Cytochrome P450 2D6 (Homo sapiens, UniProt P10635);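 further: CYP2D6 member of a cytochrome P450 panel assay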
# Sequence of Cytochrome P450 2D6 (P10635 whole entry): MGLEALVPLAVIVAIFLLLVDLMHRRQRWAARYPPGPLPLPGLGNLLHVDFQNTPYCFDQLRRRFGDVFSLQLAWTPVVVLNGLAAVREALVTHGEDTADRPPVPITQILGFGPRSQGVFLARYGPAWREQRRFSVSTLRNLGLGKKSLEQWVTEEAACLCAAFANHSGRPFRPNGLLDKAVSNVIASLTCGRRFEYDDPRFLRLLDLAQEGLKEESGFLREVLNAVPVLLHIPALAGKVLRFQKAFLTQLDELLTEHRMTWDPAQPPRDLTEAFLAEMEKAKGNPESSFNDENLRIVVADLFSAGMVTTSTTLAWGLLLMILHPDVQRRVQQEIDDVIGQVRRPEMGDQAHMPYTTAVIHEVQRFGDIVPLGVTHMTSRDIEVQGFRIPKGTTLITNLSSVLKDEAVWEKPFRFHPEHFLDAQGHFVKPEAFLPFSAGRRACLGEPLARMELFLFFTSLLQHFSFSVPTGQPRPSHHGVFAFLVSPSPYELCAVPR
# [8] = target: T1, Heat shock factor protein 1 (Mus musculus, UniProt P38532); experiment: HSF1 potentiators in luciferase reporter cells, confirmation, cell-based, NIH3T3, luminescence, dose retest (AID 435004); format: functional;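 further: stress induced by proteasome inhibitor MG132 added 30 min after compound; luciferase reporter driven by HSF1 response element in NIH3T3 cells; actives raise luminescence as potentiators of the MG132 stress response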
# T1 sequence (P38532 whole entry): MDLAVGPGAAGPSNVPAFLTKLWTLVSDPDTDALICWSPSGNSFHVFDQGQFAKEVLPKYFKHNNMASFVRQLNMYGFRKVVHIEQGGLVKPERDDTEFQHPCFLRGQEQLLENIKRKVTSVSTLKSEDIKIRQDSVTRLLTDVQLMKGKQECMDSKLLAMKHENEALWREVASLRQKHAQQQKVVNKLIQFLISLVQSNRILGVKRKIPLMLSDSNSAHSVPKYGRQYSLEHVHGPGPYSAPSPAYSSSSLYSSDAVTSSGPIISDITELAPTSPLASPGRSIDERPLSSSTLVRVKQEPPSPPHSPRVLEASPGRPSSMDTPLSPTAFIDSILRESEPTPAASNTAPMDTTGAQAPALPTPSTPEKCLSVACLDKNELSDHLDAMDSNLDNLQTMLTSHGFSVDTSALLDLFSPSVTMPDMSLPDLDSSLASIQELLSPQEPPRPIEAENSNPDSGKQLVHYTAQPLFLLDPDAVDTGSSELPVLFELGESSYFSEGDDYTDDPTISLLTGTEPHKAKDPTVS
# Cytochrome P450 3A4 = Cytochrome P450 3A4 (Homo sapiens, UniProt P08684);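 further: CYP3A4 tested as one member of a cytochrome P450 panel screen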
# Cytochrome P450 1A2 = target: T2, Cytochrome P450 1A2 (Homo sapiens, UniProt P05177);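 further: PubChem cytochrome P450 panel assay, CYP1A2 panel member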
# T2 sequence (P05177 whole entry): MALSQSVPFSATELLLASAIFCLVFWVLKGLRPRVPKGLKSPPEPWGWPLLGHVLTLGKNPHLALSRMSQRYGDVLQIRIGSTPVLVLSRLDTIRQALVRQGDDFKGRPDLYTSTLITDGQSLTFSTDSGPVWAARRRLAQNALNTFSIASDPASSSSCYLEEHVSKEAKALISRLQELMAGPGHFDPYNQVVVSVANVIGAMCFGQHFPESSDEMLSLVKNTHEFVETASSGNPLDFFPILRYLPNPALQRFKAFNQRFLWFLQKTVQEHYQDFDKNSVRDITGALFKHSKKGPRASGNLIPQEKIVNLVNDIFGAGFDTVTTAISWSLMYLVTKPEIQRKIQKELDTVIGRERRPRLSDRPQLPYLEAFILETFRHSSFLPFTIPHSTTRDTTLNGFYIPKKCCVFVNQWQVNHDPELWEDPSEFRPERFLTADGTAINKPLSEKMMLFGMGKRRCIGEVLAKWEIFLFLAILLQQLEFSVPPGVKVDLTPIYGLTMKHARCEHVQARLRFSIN
# SUMO-activating enzyme [9] = target: T3, SUMO-activating enzyme (Homo sapiens, UniProt Q9UBT2); experiment: SUMOylation inhibitor hit validation, confirmation, SUMOylation inhibitor project, biochemical, AlphaScreen (AID 2018); format: functional
# T3 sequence (Q9UBE0 whole entry): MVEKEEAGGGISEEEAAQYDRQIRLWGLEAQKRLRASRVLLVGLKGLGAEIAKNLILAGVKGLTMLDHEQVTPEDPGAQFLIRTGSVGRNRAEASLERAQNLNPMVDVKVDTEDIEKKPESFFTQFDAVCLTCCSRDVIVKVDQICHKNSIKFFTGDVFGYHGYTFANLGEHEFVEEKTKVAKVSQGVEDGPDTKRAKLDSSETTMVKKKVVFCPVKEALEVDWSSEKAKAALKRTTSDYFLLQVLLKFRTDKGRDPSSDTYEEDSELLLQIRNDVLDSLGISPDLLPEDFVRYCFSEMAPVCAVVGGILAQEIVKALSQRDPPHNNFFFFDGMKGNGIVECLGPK
# T3 sequence (Q9UBT2 whole entry): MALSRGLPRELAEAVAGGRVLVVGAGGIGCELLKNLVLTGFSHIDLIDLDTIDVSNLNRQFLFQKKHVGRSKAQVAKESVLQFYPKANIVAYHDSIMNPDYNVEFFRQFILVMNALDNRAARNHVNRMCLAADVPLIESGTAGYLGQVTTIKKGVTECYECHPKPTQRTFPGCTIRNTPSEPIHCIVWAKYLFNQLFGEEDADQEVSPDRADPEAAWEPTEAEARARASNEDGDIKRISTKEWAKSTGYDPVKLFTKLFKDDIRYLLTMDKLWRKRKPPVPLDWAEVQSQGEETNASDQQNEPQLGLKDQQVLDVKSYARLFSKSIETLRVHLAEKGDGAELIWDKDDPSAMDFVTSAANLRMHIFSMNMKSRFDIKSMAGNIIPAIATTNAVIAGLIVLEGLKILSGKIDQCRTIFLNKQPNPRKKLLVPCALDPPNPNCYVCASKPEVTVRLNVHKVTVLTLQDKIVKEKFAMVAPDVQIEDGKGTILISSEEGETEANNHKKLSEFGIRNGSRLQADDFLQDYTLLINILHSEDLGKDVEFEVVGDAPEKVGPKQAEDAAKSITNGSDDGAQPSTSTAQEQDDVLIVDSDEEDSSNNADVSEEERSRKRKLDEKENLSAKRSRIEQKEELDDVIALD
# Protein RecA = target: T4, Protein RecA (Mycobacterium tuberculosis, UniProt P9WHJ3); experiment: Fluorescence Cell-Free Homogeneous Dose Retest to Identify Inhibitors of RecA-Intein Splicing Activity. [Related pubchem assays (depositor defined):AID2097, AID2223, AID489010, AID492950]; format: functional
# T4 sequence (P9WHJ3 whole entry): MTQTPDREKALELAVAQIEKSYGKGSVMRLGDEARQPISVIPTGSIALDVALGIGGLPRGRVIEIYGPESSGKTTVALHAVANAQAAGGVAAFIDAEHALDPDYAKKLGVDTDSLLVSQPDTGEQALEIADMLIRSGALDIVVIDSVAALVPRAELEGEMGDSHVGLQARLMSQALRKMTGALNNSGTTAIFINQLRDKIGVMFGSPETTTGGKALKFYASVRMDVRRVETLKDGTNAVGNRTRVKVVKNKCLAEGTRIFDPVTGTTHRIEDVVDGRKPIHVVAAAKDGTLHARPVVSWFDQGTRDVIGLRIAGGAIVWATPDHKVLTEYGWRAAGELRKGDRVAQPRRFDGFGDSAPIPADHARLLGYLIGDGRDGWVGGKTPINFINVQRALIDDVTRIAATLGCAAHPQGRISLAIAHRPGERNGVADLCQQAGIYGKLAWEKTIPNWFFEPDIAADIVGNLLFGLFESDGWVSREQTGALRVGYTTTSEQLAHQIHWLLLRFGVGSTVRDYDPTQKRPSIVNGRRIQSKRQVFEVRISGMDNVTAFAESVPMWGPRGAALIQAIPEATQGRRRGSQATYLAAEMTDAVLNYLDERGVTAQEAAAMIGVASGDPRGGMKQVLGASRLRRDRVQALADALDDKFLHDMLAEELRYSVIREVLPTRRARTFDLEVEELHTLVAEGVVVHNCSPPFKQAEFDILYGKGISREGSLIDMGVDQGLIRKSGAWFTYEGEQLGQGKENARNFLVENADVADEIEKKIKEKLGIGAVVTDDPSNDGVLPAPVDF
# [10] = target: T5, Replicative DNA helicase DnaB (Mycobacterium tuberculosis, UniProt P9WMR3); experiment: DnaB intein splicing inhibitors, dose response, biochemical, cell-free fluorescence (AID 449749); format: functional
# T5 sequence (P9WMR3 whole entry): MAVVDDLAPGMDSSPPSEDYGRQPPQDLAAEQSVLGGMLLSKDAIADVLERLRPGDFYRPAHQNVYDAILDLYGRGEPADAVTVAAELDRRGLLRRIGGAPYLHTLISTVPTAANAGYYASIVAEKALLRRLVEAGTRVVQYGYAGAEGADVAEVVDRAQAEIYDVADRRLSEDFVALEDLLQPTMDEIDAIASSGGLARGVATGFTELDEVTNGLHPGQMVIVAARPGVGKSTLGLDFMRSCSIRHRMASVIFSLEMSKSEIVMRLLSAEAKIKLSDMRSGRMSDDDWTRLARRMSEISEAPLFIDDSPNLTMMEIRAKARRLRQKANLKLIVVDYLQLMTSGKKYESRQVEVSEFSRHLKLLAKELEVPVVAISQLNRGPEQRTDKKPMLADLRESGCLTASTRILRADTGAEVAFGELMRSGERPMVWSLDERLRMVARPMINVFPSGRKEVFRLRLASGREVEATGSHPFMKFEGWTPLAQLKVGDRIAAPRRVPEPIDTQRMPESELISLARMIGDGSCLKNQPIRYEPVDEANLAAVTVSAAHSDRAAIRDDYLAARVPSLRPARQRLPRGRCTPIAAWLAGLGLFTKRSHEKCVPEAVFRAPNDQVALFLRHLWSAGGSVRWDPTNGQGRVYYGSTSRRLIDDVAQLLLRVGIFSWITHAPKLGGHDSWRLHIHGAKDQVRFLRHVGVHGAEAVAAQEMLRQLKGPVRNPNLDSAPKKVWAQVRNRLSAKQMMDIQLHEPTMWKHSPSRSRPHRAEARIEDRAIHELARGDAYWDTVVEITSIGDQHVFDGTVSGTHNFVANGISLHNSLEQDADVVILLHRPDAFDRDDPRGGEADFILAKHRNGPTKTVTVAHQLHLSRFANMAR
# [11] = target: Induced myeloid leukemia cell differentiation protein Mcl-1 (Homo sapiens, UniProt Q07820); format: functional
# [12] = THP-1 cell cytotoxicity, dose response, cytotoxicity control for Vif-APOBEC3G degradation inhibitor project, THP-1 cells (AID 1117359); format: functional; settings: Human immunodeficiency virus 1, THP-1
# SUMO-activating enzyme [13] = target: T3, SUMO-activating enzyme; experiment: inhibitors of in vitro SUMOylation cascade, primary screen, biochemical, HTRF, uHTS (AID 2006); format: protein-complex assay
# Cytochrome P450 2C19 = Cytochrome P450 2C19 (Homo sapiens, UniProt P33261); experiment: Cytochrome panel assay with activity outcomes. Panel member name: p450-cyp2c19 Compounds with AC50 equal or less than 10 uM are considered active; format: functional
# Sequence of Cytochrome P450 2C19 (P33261 whole entry): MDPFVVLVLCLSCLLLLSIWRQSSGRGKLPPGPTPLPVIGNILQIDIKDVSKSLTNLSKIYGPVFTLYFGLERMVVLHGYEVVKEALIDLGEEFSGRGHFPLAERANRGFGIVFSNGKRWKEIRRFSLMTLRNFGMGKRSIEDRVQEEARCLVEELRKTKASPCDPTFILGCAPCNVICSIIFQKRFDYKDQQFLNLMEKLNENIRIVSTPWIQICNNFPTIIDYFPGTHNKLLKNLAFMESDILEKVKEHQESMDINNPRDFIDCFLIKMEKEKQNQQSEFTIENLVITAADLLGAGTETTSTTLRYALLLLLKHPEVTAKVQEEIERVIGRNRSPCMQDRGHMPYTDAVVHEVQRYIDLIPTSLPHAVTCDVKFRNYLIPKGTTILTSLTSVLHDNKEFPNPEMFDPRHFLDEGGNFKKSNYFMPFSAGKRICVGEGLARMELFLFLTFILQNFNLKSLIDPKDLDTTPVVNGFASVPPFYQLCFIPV
# [14] = target: Voltage-gated inwardly rectifying potassium channel KCNH2 (Homo sapiens, UniProt Q12809); settings: Potency;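 further: confirmatory quantitative high-throughput screen measuring inhibition of hERG channel activity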
# Sequence of Voltage-gated inwardly rectifying potassium channel KCNH2 (Q12809 whole entry): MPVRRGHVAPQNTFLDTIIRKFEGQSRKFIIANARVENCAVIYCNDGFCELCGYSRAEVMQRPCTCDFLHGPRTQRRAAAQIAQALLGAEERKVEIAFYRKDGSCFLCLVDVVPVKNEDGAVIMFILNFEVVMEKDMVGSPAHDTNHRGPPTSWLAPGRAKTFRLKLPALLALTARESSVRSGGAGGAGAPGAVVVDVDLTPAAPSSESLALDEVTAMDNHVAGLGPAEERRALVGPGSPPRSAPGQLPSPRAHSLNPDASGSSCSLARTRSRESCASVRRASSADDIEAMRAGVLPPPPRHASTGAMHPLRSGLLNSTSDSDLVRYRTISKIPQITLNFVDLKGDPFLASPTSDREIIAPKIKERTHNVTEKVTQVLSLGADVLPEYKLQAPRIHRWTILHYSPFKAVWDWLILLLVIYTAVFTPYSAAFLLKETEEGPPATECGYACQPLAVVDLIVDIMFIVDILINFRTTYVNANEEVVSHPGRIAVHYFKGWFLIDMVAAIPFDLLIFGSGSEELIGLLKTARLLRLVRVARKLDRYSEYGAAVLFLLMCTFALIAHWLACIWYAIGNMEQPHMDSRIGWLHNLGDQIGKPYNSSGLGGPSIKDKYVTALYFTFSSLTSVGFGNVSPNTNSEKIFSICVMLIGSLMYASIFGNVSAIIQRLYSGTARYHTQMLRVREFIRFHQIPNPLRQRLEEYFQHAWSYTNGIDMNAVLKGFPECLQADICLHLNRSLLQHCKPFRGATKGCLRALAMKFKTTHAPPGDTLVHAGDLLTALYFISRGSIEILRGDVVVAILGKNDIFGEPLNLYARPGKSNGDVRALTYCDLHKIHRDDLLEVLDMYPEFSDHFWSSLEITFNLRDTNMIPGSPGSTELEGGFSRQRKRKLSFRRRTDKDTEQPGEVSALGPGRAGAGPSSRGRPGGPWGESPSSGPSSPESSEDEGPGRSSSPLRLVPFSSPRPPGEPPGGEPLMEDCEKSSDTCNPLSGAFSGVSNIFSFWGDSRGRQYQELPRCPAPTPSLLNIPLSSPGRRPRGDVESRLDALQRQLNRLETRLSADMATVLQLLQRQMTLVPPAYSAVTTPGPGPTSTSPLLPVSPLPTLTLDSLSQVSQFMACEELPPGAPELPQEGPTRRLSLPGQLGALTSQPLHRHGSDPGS
# [15] = Luminescence Cell-Based Dose Retest to Confirm Inhibitors of Cancer Stem Cells. [Related pubchem assays (depositor defined):AID2717, AID2721]; format: functional; settings: Homo sapiens
# [16] = cytotoxicity in HEK-293T cells, dose response, cytotoxicity control for TCR NF-kB inhibitor project, luminescence, T-cell screen hits (AID 489026); format: functional, cell-based;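 further: cells exposed to compound about 14 hours before the viability readout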
# Vero = experiment: cells; format: functional; settings: Chlorocebus sabaeus
# INS1 = experiment: beta cell apoptosis inhibitors, cytokine rescue, dose response, luminescence, retest (AID 449756); format: functional, cell-based; settings: Rattus norvegicus;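 further: cell death triggered by IL-1 beta plus TNF-alpha plus IFN-gamma mixture; protective hits raise ATP signal compared with cytokine alone wells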
# Sequence of Beta-2 adrenergic receptor (P07550 whole entry): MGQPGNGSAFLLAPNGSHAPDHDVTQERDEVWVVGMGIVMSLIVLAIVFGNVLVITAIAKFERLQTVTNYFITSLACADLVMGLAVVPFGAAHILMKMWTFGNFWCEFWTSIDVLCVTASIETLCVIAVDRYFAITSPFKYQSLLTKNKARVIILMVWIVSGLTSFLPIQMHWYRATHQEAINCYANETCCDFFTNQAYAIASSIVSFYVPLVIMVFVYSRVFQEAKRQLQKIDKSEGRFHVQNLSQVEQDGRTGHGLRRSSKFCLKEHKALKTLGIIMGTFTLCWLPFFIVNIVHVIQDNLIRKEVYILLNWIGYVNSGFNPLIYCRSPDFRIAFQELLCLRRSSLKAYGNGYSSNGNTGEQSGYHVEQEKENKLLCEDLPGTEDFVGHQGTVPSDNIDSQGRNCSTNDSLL
structure (smiles),measurement,setting,value
NC(=O)CC(NC(=O)Cc1ccc(Br)cc1)c1ccc(N2CCN(c3ccccn3)CC2)c([N+](=O)[O-])c1 (centres undefined),EC50,[1],12.2 µM (inactive)
CC(=O)Nc1ccc(S(=O)(=O)NNc2cccc(C)c2)cc1,IC50,[2],35.9 µM (active)
same,IC50,[3],> 80 µM (inactive)
same,EC50,[4],> 50 µM (active)
c1nc(NCC2CCCC2)c2cc(-c3ccc4c(c3)OCO4)ccc2n1,AC50,[5],0.00361 µM (active)
CSc1ccc(C(=O)C2CCCN(Cc3cccn3-c3cccnc3)C2)cc1 (centres undefined),EC50,[1],0.566 µM (active)
O=C(CSc1nnnn1-c1ccc(O)cc1)Nc1ccc(N2CCOCC2)c(Cl)c1,AC50,[6],8.12 µM (active)
same,AC50,[5],8.48 µM (active)
same,IC50,[7],0.488 µM (active)
COc1cc(-c2nnc(SC/C=C/c3ccccc3)n2N)cc(OC)c1OC,AC50,Cytochrome P450 2D6,inconclusive
same,EC50,[8],> 260 µM (inconclusive)
same,AC50,Cytochrome P450 3A4,31.6 µM (inconclusive)
same,AC50,Cytochrome P450 1A2,14.1 µM (inconclusive)
Clc1ccc(CNc2nccc(-c3ccc4c(c3)OCO4)n2)cc1Cl,AC50,[5],< 0.00195 µM (active)
CCc1ccc(S(=O)(=O)/N=C2\C=CC(=O)c3ccccc32)cc1,IC50,SUMO-activating enzyme [9],4.93 µM (active)
same,EC50,Protein RecA,0.643 µM (active)
same,AC50,[10],1.15 µM (active)
same,IC50,[11],3.11 µM (active)
same,CC50,[12],23.7 µM (active)
same,IC50,SUMO-activating enzyme [13],35.4 µM (active)
Cc1ccc(C(=O)N/N=C/c2ccc(S(=O)(=O)[O-])o2)c(Cl)c1.[Na+],AC50,Cytochrome P450 2D6,inconclusive
same,AC50,Cytochrome P450 2C19,inconclusive
c1ccc(SCCSc2ccccc2)cc1,AC50,[14],28.2 µM (inconclusive)
CC(C)(C)c1cc(C=C(C#N)C#N)cc(C(C)(C)C)c1O [TYRPHOSTIN A9],AC50,[14],15.8 µM (inconclusive)
same,AC50,Cytochrome P450 2C19; read-out: AC50,7.94 µM (inconclusive)
same,AC50,[15],1.3 µM (active)
same,IC50,[16],> 80 µM (inactive)
same,CC50,Vero,1.37 µM (active)
same,AC50,INS1,0.928 µM (active)
